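Values below derive from 48-hour exposures of cells grown in 96-well plates, with endpoints linearly interpolated between the two concentrations bracketing the appropriate inhibition level. GI50: concentration for 50% inhibition of growth. TGI is the concentration that stops growth completely.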
Key:
Test in all cases: DTP human tumour cell line panel, 48 h
786-0 renal = test system: 786-0 renal
A498 renal = test system: A498 renal
A549 NSCLC = test system: A549 NSCLC
ACHN renal = test system: ACHN renal
BT-549 breast = test system: BT-549 breast
CCRF-CEM leukemia = test system: CCRF-CEM leukemia
COLO 205 colon = test system: COLO 205 colon
DU-145 prostate = test system: DU-145 prostate
EKVX NSCLC = test system: EKVX NSCLC
HCC-2998 colon = test system: HCC-2998 colon
HCT-116 colon = test system: HCT-116 colon
HCT-15 colon = test system: HCT-15 colon
HL-60(TB) leukemia = test system: HL-60(TB) leukemia
HOP-62 NSCLC = test system: HOP-62 NSCLC
HOP-92 NSCLC = test system: HOP-92 NSCLC
HS 578T breast = test system: HS 578T breast
HT29 colon = test system: HT29 colon
IGROV1 ovarian = test system: IGROV1 ovarian
K-562 leukemia = test system: K-562 leukemia
KM12 colon = test system: KM12 colon
LOX IMVI melanoma = test system: LOX IMVI melanoma
M14 melanoma = test system: M14 melanoma
MALME-3M melanoma = test system: MALME-3M melanoma
MCF7 breast = test system: MCF7 breast
MDA-MB-231 breast = test system: MDA-MB-231 breast
MDA-MB-435 = test system: MDA-MB-435
MOLT-4 leukemia = test system: MOLT-4 leukemia
NCI-H226 lung = test system: NCI-H226 lung
NCI-H23 lung = test system: NCI-H23 lung
NCI-H460 lung = test system: NCI-H460 lung
NCI-H522 lung = test system: NCI-H522 lung
NCI/ADR-RES ovarian = test system: NCI/ADR-RES ovarian
OVCAR-3 ovarian = test system: OVCAR-3 ovarian
OVCAR-4 ovarian = test system: OVCAR-4 ovarian
OVCAR-5 ovarian = test system: OVCAR-5 ovarian
OVCAR-8 ovarian = test system: OVCAR-8 ovarian
PC-3 prostate = test system: PC-3 prostate
RPMI-8226 leukemia = test system: RPMI-8226 leukemia
RXF 393 renal = test system: RXF 393 renal
SF-268 CNS = test system: SF-268 CNS
SF-295 CNS = test system: SF-295 CNS
SF-539 CNS = test system: SF-539 CNS
SK-MEL-2 melanoma = test system: SK-MEL-2 melanoma
SK-MEL-28 melanoma = test system: SK-MEL-28 melanoma
SK-MEL-5 melanoma = test system: SK-MEL-5 melanoma
SK-OV-3 ovarian = test system: SK-OV-3 ovarian
SN12C renal = test system: SN12C renal
SNB-19 CNS = test system: SNB-19 CNS
SNB-75 CNS = test system: SNB-75 CNS
SR leukemia = test system: SR leukemia
SW-620 colon = test system: SW-620 colon
T-47D breast = test system: T-47D breast
TK-10 renal = test system: TK-10 renal
U251 CNS = test system: U251 CNS
UACC-257 melanoma = test system: UACC-257 melanoma
UACC-62 melanoma = test system: UACC-62 melanoma
UO-31 renal = test system: UO-31 renal

O=c1cc(N2CCOCC2)oc2c(-c3ccc4c(c3)OCCO4)csc12
GI50 (786-0 renal): 352 nM | TGI (786-0 renal): 6310 nM | GI50 (A498 renal): 102 nM | TGI (A498 renal): 662 nM | GI50 (A549 NSCLC): 583 nM | TGI (A549 NSCLC): 10500 nM | GI50 (ACHN renal): 339 nM | TGI (ACHN renal): 10700 nM | GI50 (BT-549 breast): 332 nM | TGI (BT-549 breast): 4100 nM | GI50 (CCRF-CEM leukemia): 1490 nM | TGI (CCRF-CEM leukemia): > 61900 nM | GI50 (COLO 205 colon): 417 nM | TGI (COLO 205 colon): 2740 nM | GI50 (DU-145 prostate): 730 nM | TGI (DU-145 prostate): > 100000 nM | GI50 (EKVX NSCLC): 333 nM | TGI (EKVX NSCLC): 6150 nM | GI50 (HCC-2998 colon): 746 nM | TGI (HCC-2998 colon): 8790 nM | GI50 (HCT-116 colon): 775 nM | TGI (HCT-116 colon): 11100 nM | GI50 (HCT-15 colon): 471 nM | TGI (HCT-15 colon): > 40800 nM | GI50 (HL-60(TB) leukemia): 298 nM | TGI (HL-60(TB) leukemia): 2890 nM | GI50 (HOP-62 NSCLC): 302 nM | TGI (HOP-62 NSCLC): 5330 nM | GI50 (HOP-92 NSCLC): 214 nM | TGI (HOP-92 NSCLC): 2560 nM | GI50 (HS 578T breast): 221 nM | TGI (HS 578T breast): 1400 nM | GI50 (HT29 colon): 379 nM | TGI (HT29 colon): 12200 nM | GI50 (IGROV1 ovarian): 262 nM | TGI (IGROV1 ovarian): 1470 nM | GI50 (K-562 leukemia): 1170 nM | TGI (K-562 leukemia): > 100000 nM | GI50 (KM12 colon): 1080 nM | TGI (KM12 colon): > 38600 nM | GI50 (LOX IMVI melanoma): 425 nM | TGI (LOX IMVI melanoma): 2820 nM | GI50 (M14 melanoma): 451 nM | TGI (M14 melanoma): 4860 nM | GI50 (MALME-3M melanoma): 224 nM | TGI (MALME-3M melanoma): 1800 nM | GI50 (MCF7 breast): 284 nM | TGI (MCF7 breast): 11300 nM | GI50 (MDA-MB-231 breast): 382 nM | TGI (MDA-MB-231 breast): 14500 nM | GI50 (MDA-MB-435): 428 nM | TGI (MDA-MB-435): 33600 nM | GI50 (MOLT-4 leukemia): 628 nM | TGI (MOLT-4 leukemia): 6240 nM | GI50 (NCI-H226 lung): 492 nM | TGI (NCI-H226 lung): 11700 nM | GI50 (NCI-H23 lung): 760 nM | TGI (NCI-H23 lung): 17300 nM | GI50 (NCI-H460 lung): 658 nM | TGI (NCI-H460 lung): 14200 nM | GI50 (NCI-H522 lung): 282 nM | TGI (NCI-H522 lung): 4160 nM | GI50 (NCI/ADR-RES ovarian): 590 nM | TGI (NCI/ADR-RES ovarian): 19700 nM | GI50 (OVCAR-3 ovarian): 526 nM | TGI (OVCAR-3 ovarian): 11300 nM | GI50 (OVCAR-4 ovarian): 413 nM | TGI (OVCAR-4 ovarian): > 61900 nM | GI50 (OVCAR-5 ovarian): 445 nM | TGI (OVCAR-5 ovarian): > 62900 nM | GI50 (OVCAR-8 ovarian): 498 nM | TGI (OVCAR-8 ovarian): 12000 nM | GI50 (PC-3 prostate): 319 nM | TGI (PC-3 prostate): > 80200 nM | GI50 (RPMI-8226 leukemia): 439 nM | TGI (RPMI-8226 leukemia): 4660 nM | GI50 (RXF 393 renal): 405 nM | TGI (RXF 393 renal): 3480 nM | GI50 (SF-268 CNS): 687 nM | TGI (SF-268 CNS): 21600 nM | GI50 (SF-295 CNS): 307 nM | TGI (SF-295 CNS): 3670 nM | GI50 (SF-539 CNS): 425 nM | TGI (SF-539 CNS): 3610 nM | GI50 (SK-MEL-2 melanoma): 798 nM | TGI (SK-MEL-2 melanoma): 5030 nM | GI50 (SK-MEL-28 melanoma): 579 nM | TGI (SK-MEL-28 melanoma): 11400 nM | GI50 (SK-MEL-5 melanoma): 590 nM | TGI (SK-MEL-5 melanoma): 2160 nM | GI50 (SK-OV-3 ovarian): 272 nM | TGI (SK-OV-3 ovarian): 1200 nM | GI50 (SN12C renal): 484 nM | TGI (SN12C renal): > 100000 nM | GI50 (SNB-19 CNS): 1180 nM | TGI (SNB-19 CNS): 42800 nM | GI50 (SNB-75 CNS): 127 nM | TGI (SNB-75 CNS): 765 nM | GI50 (SR leukemia): 519 nM | TGI (SR leukemia): 8570 nM | GI50 (SW-620 colon): 978 nM | TGI (SW-620 colon): 16300 nM | GI50 (T-47D breast): 167 nM | TGI (T-47D breast): 643 nM | GI50 (TK-10 renal): 257 nM | TGI (TK-10 renal): 1290 nM | GI50 (U251 CNS): 1080 nM | TGI (U251 CNS): 35000 nM | GI50 (UACC-257 melanoma): 608 nM | TGI (UACC-257 melanoma): 7950 nM | GI50 (UACC-62 melanoma): 325 nM | TGI (UACC-62 melanoma): 2060 nM | GI50 (UO-31 renal): 167 nM | TGI (UO-31 renal): 1790 nM
